Assay results from article PMC10808766, “Optimizing drug discovery for snakebite envenoming via a high-throughput phospholipase A2 screening platform” (Frontiers in Pharmacology, 2024).
Structures can show the parent of a compound that is named as a salt. Where two headings read alike, the source gives them in different places.

Experiments:
[1] = tested on: PLA2 activity of D. russelii venom; assay: Miniaturised 384-well colorimetric sPLA2 assay, D. russelii venom; assay type: biochemical, Daboia russelii; conditions: for EC50: 2-fold dilutions 10 µM to 5 pM, n = 4; for venom PLA2 activity in presence of compound: interleaved validation plates, 10 µM compound; for venom PLA2 activity in presence of compound / Percent inhibition (PLA2) Original / Percent inhibition (PLA2) Rescreen: 20 ng/well D. russelii venom; for Percent inhibition (PLA2) Original: primary screen, 10 µM drug, single point, relative to varespladib (100%) and DMSO (0%); for mean inhibition between screen and rescreen / Percent inhibition (PLA2) Rescreen: 10 µM; for mean inhibition between screen and rescreen: D. russelii venom; for Percentage of Inhibition: Table S1, strong hits, value used for ligand efficiency metrics; for Percent inhibition (PLA2) Rescreen: rescreen of library hits, average of rescreen (2 ≤ n ≤ 4)
Experimental: Once hydrolysed, this substrate yields a free thiol group that interacts with 5,5′-dithio-bis-(2-nitrobenzoic acid) (DTNB), which is then converted into 2-nitro-5-thiobenzoic acid, causing a change in colour which is measurable at 405 nm. This conversion is measured kinetically and occurs at a linear rate until the substrate is exhausted, at which point the absorbance plateaus. Appropriate PLA2 concentrations are determined to fit within the linear range of the assay and a bee venom positive control is included with the kit. The assay is designed for 96-well plates and is quite costly at GBP£440/96 tests at the time of writing. We wanted to adapt and miniaturise this methodology for high-throughput screening of PLA2 activity and inhibition in 384-well plates to decrease cost and increase output, without compromising assay robustness.
Prior to conducting drug library screens, it was important to assess whether any drift or edge effects occurred in our setup. […] These consisted of full rows of these compounds in a repeating pattern (e.g., DMSO was in rows A, E, I, M, buffer was in rows B, F, J, N, etc.) on a 384-well plate. The assay was conducted as previously described using 20 ng/well of D. russelii venom across the plate. This was repeated three times on different days. To determine PLA2 activity under each of these conditions, the slope of each reaction was calculated by dividing the difference in absorbance at 405 nm between the first two time points in the linear range (tn–t0) by time (in min) where tn was 2 min 41 s in this case. These values were then inputted into the following equation: A µmol/min×mL=slope×0.045/4.6×0.01 where A represents venom activity, 0.045 is a factor representing the total volume of the assay (45 µL), 4.6 is the extinction coefficient of DTNB in 384-well plates, and 0.01 represents the sample size of 10 µL. This activity is then converted into specific activity by dividing the overall activity to the amount of venom in the reaction in micrograms.
Once in house this library was formatted as 11 × 384-well stock plates containing drugs at a concentration of 1 mM in DMSO. […] Assay-ready plates (ARPs) were made by transferring 0.5 µL from each well of the stock plates onto new 384-well plates, so that the layout of the ARP matched that of the stock plate. Venom was added at 10 µL per well (20 ng venom/well) across the plate, except for column 24 which received 10 µL of assay buffer. These latter wells containing control drugs and assay buffer served as the blank. The plates were incubated for 25 min at 37°C, then left to reach room temperature for 5 min. […] The data were analysed as above by calculating the slopes of all reactions on the plate. The average of the slopes of the blanks was then subtracted from each of these values, and specific activity calculated as described and expressed as µmol/min/mL/µg of venom.
These experiments were conducted and analysed as above, with n = 4 repeats per compound.

[2] = tested on: PLA2 activity of D. russelii venom; assay: as above; assay type: biochemical, Daboia russelii; conditions: re-sourced drugs, 10 µM, 30 ng venom, varespladib normalised as 100%
[3] = tested on: PLA2 activity of N. naja venom; assay: Miniaturised 384-well colorimetric sPLA2 assay, N. naja venom; conditions: re-sourced drugs, 10 µM, 40 ng venom, varespladib normalised as 100%
Experimental: (§1) The final concentrations of DTNB and that of the substrate in the assay were 0.44 and 0.88 mM, respectively.
(§2) Then, 10 µL of snake venom at a concentration appropriate for the venom being screened was added to the plates using the VIAFLO384 and the plates were sealed with adhesive plate seals (Greiner BioOne), spun down and incubated for 25 min at 37°C. To prevent the degradation of any potential photolabile compounds, the plates were wrapped in aluminium foil prior to the incubation step. The plates were then taken out of the incubator and left to acclimatise at room temperature for 5 min.
(§3) To determine percentage inhibition relative to the positive and negative controls we applied the following formula: % inhibition= A− µ pos/µ neg− µ pos×100 where A represents specific activity as determined for each sample, and µ (pos) and µ (neg) represent the means of the specific activity in the positive and negative controls, respectively.

[4] = tested on: PLA2 activity of C. atrox venom; assay: Miniaturised 384-well colorimetric sPLA2 assay, C. atrox venom; conditions: re-sourced drugs, 10 µM, 30 ng venom, varespladib normalised as 100%
Experimental: as §1, §2, §3

[5] = tested on: PLA2 activity of B. arietans venom; assay: Miniaturised 384-well colorimetric sPLA2 assay, B. arietans venom; conditions: re-sourced drugs, 10 µM, 40 ng venom, varespladib normalised as 100%
Experimental: as §1, §2, §3

[6] = tested on: PLA2 activity of N. nigricollis venom; assay: Miniaturised 384-well colorimetric sPLA2 assay, N. nigricollis venom; conditions: for % inhibition: N. nigricollis: re-sourced drugs, 10 µM, 5 ng venom, varespladib normalised as 100%
Experimental: as §1, §2, §3
(§4) Drugs were plated as before, starting at 10 µM followed by 2-fold dilutions down to 5 pM, with each dilution series plated in quadruplicate. The data were analysed and expressed as described above and the percentage PLA2 inhibition values were used to generate EC50s in Graphpad Prism 9 using a nonlinear regression to fit the dose-response inhibition curve.

[7] = tested on: PLA2 activity of C. durissus terrificus venom; assay: Miniaturised 384-well colorimetric sPLA2 assay, C. durissus terrificus venom; conditions: for % inhibition: C. durissus terrificus: re-sourced drugs, 10 µM, 12.5 ng venom, varespladib normalised as 100%; for EC50: read-out: EC50 (nM) C. durissus terrificus, 2-fold dilutions 10 µM to 5 pM, n = 4
Experimental: as §1, §2, §3, §4

secreted PLA2 = tested on: secreted PLA2; set-up: method as in Yu et al., 1997; conditions: ref Yu et al., 1997; cited from earlier work
[8] = set-up: method as in Liu et al., 1987; Coutinho et al., 2000; conditions: dose of up to 20 mg/day, trialled in the 1970s in China; ref Liu et al., 1987; Coutinho et al., 2000; cited from earlier work
[9] = set-up: method as in Beaudoin, 1985; conditions: ref Beaudoin, 1985; cited from earlier work
[10] = tested on: non-small cell lung carcinoma cells; set-up: method as in Wang et al., 2018; conditions: ref Wang et al., 2018; cited from earlier work
[11] = tested on: PLA2 activity of C. durissus terrificus venom; set-up: method as in Cotrim et al., 2011; conditions: ref Cotrim et al., 2011; cited from earlier work
[12] = set-up: method as in Cerdá et al., 2003; conditions: ref Cerdá et al., 2003; cited from earlier work
[13] = read-out: EC50 (nM) D. russelii

| Compound | % inhibition: D. russelii [2] | % inhibition: N naja [3] | % inhibition: C. atrox [4] | % inhibition: B. arietans [5] | % inhibition: N. nigricollis [6] | % inhibition: C. durissus terrificus [7] | EC50 [7] [nM] | mean inhibition between screen and rescreen [1] [%] | also measured |
| --- | --- | --- | --- | --- | --- | --- | --- | --- | --- |
| CCc1c(C(=O)C(N)=O)c2c(OCC(=O)O)cccc2n1Cc1ccccc1 [Varespladib] | reducing readings to control levels | reducing readings to control levels | reducing readings to control levels | reducing readings to control levels | reducing readings to control levels | reducing readings to control levels | 5.5 | – | inhibition of venom PLA2 activity (reaction rate) ([1]; 10 µM varespladib, viper venom, Figure 1B): inhibited venom activity to baseline readings; EC50 ([1]; text value in pM, read-out: EC50 against D. russelii venom): 500 pM; venom PLA2 activity in presence of compound [1]: dropped sharply; Percent inhibition (PLA2) Original [1]: > 99%; inhibition of venom PLA2 activity (reaction rate) ([6]; 10 µM varespladib, elapid venom, Figure 1B): inhibited venom activity to baseline readings |
| Tannic acid | – | – | – | – | – | – | – | 92.1 | – |
| CC(=O)O.Cc1cc2c(C(C)C)c(O)c(O)c(C=O)c2c(O)c1-c1c(C)cc2c(C(C)C)c(O)c(O)c(C=O)c2c1O | – | – | – | – | – | – | – | 89.2 | – |
| Cc1cc2c(C(C)C)c(O)c(O)c(C=O)c2c(O)c1-c1c(C)cc2c(C(C)C)c(O)c(O)c(C=O)c2c1O [Gossypol] | – | 30% | – | – | 64% | – | 69.1 | 76.6 | EC50 [1, 13]: 94100 pM; inhibition of secreted PLA2 activity (secreted PLA2): reported inhibition of secreted PLA2 activity; efficacy and tolerability as male contraceptive [8]: efficacious and well tolerated; teratogenicity [9]: non-teratogenic; proliferation in non-small cell lung carcinoma cells [10]: inhibited proliferation |
| CC(=O)Oc1cc2c(s1)CCN(C(C(=O)C1CC1)c1ccccc1F)C2 (stereo not drawn) [Prasugrel (hydrochloride), prasugrel hydrochloride] | above 72% | – | – | – | – | – | – | 83.9 | Percentage of Inhibition [1]: 89.92 |
| CNC(=O)[C@@H](NC(=O)[C@H](CC(C)C)[C@H](O)C(=O)NO)C(C)(C)C [Marimastat, marimastat] | – | – | – | – | – | – | – | – | venom PLA2 activity in presence of compound [1]: 6–8 μmol/min/mL/µg venom |
| O=c1c(O)c(-c2ccc(O)c(O)c2)oc2cc(O)cc(O)c12 [Quercetin (dihydrate), quercetin dihydrate] | 42% | < 15% | < 15% | < 15% | < 15% | ~65% | – | – | Percent inhibition (PLA2) Original [1]: > 70%; Percent inhibition (PLA2) Rescreen [1]: failed to inhibit; inhibition of enzymatic PLA2s from C. durissus terrificus venom [11]: previously shown to inhibit |
| CC1(C)C2CCC1(C)C(O)C2 (racemic) [DL-Borneol] | did not re-test as a hit | did not re-test as a hit | did not re-test as a hit | did not re-test as a hit | did not re-test as a hit | did not re-test as a hit | – | 95.1 | – |
| O=C(/C=C/c1ccc(O)c(O)c1/C=C/c1ccc(O)c(O)c1)O[C@H](Cc1ccc(O)c(O)c1)C(=O)O [Salvianolic acid A] | – | – | – | – | – | – | – | – | Percent inhibition (PLA2) Rescreen [1]: failed to reproducibly inhibit |
| O=C1O[C@H]2[C@@H]3OC(=O)c4cc(O)c(O)c(O)c4-c4c(O)c(O)c5oc(=O)c6c(c(O)c(O)c7oc(=O)c4c5c76)-c4c(cc(O)c(O)c4O)C(=O)OC[C@H]3OC(O)[C@@H]2OC(=O)c2cc(O)c(O)c(O)c2-c2c1cc(O)c(O)c2O (mixture of isomers) [Punicalagin, punicalagin] | above 72% | – | – | – | – | – | 167 | 71.7 | EC50 [1, 13]: 559000 pM; Percentage of Inhibition [1]: 83.82; toxicity at high doses in rodents [12]: non-toxic; EC50 ([6]; read-out: EC50 (nM) N. nigricollis, 2-fold dilutions 10 µM to 5 pM, n = 4): 270 nM |
